Results on six molecules are retold here after ChEMBL document CHEMBL4052740, “Potent antiobesity effect of a short-length peptide YY-analogue continuously administered in mice” (Bioorg Med Chem Lett, 2017).

Series [1] deals with T1, Neuropeptide Y receptor type 2 (Homo sapiens, UniProt P49146).
T1 sequence (P49146 whole entry): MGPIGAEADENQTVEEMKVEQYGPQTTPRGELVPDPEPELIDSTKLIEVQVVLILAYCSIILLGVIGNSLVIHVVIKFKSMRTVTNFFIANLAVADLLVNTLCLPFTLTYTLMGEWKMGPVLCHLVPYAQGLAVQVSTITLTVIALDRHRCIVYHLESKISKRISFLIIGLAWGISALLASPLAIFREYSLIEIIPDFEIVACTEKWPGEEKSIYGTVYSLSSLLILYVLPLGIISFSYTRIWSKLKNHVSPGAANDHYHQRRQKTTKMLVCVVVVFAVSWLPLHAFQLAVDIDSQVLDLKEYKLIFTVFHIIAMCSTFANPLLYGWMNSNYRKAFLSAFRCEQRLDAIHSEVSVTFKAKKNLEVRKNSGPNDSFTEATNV
Nature of the series: Displacement of [125I]peptide YY from human Y2 receptor expressed in CHO cell membranes after 60 mins by TopCount scintillation counting analysis.

Series [2] in a line: Bioavailability in C57BL/6J mouse at 1 mg/kg, sc by LC/MS/MS analysis. In kind it is ADME, organism-based. The conditions noted are these: in vivo.
For series [3], the target named is T1, Neuropeptide Y receptor type 2. Nature of the series: Agonist activity at human Y2 receptor expressed in CHO cell membranes after 120 mins by [35S]GTPgammaS binding assay. The series is classed as functional.
Series [4] concerns Mus musculus. Nature of the series: Anorectic activity in C57BL/6J mouse assessed as inhibition of food intake at 0.1 mg/kg/day, sc administered by infusion as continuous dosing for 3 days relative to 1 mg/kg/day PYY (3 to 36 residues). In kind it is functional.
Series [5] relates to Mus musculus. Nature of the series: Mean absorption time in C57BL/6J mouse at 1 mg/kg, sc by LC/MS/MS analysis. The series is classed as ADME, organism-based. The settings on record: in vivo.
For series [6], the system named is Mus musculus. Put plainly: Anorectic activity in C57BL/6J mouse assessed as inhibition of food intake at 1 mg/kg/day, sc administered by infusion as continuous dosing for 3 days relative to 1 mg/kg/day PYY (3 to 36 residues). In kind it is functional. The settings on record: 72 h.
In series [7] the test system is Mus musculus. Nature of the series: Antidiabetic activity in type 2 diabetes obese mouse assessed as reduction in glycated hemoglobin level at 0.03 to 0.3 mg/kg/day administered via subcutaneous osmotic pumps by continuous dosing for 11 days. In kind it is functional, organism-based.
A short description of series [8]: Mean residence time in C57BL/6J mouse at 1 mg/kg, iv by LC/MS/MS analysis. The series is classed as ADME, organism-based. The settings on record: in vivo.
For series [9], the system named is Mus musculus. Nature of the series: Anorectic activity in lean C57BL/6J mouse assessed as inhibition of cumulative food intake at 3 to 300 nmol/kg through bolus subcutaneous administration measured 24 hrs post dose. The series is classed as functional, organism-based.
Series [10] concerns Mus musculus. Nature of the series: Antidiabetic activity in type 2 diabetes obese mouse assessed as reduction in plasma glucose level at 0.03 to 0.3 mg/kg/day administered via subcutaneous osmotic pumps by continuous dosing for 11 days. In kind it is functional, organism-based.
Series [11] concerns Mus musculus. Nature of the series: Antiobesity activity in obese C57BL/6J mouse assessed as body weight loss at 0.3 mg/kg/day administered via subcutaneous osmotic pumps by continuous dosing measured on day 11 relative to control. The series is classed as functional.
Series [12] is described as follows: AUC (0 to 24 hrs) in C57BL/6J mouse at 1 mg/kg, sc by LC/MS/MS analysis. More on the design: dose 1 mg/kg, time < 24 hr, route subcutaneous. The conditions noted are these: in vivo. In kind it is ADME, organism-based.
The test system of series [13] is Mus musculus. Nature of the series: Anorectic activity in C57BL/6J mouse assessed as inhibition of food intake at 0.03 mg/kg/day, sc administered by infusion as continuous dosing for 3 days relative to 1 mg/kg/day PYY (3 to 36 residues). The series is classed as functional.
For series [14], the system named is Mus musculus. Put plainly: Antiobesity activity in obese C57BL/6J mouse assessed as inhibition of cumulative food intake at 0.03 to 0.3 mg/kg/day administered via subcutaneous osmotic pumps by continuous dosing for 11 days. In kind it is functional, organism-based.
Series [15] can be described thus: Volume of distribution at steady state in C57BL/6J mouse at 1 mg/kg, iv by LC/MS/MS analysis. In kind it is ADME, organism-based. The settings on record: in vivo, read-out: Vdss.
Series [16] has as its system Mus musculus. Nature of the series: Anorectic activity in lean C57BL/6J mouse assessed as inhibition of cumulative food intake at 3 to 300 nmol/kg through bolus subcutaneous administration measured 3 to 24 hrs post dose. The series is classed as functional, organism-based.
Series [17] can be described thus: AUC (0 to 24 hrs) in C57BL/6J mouse at 1 mg/kg, iv by LC/MS/MS analysis. The series is classed as ADME, organism-based. More on the design: time < 24 hr, dose 1 mg/kg, route intravenous. The settings on record: in vivo.
Series [18] relates to Mus musculus. Nature of the series: Anorectic activity in C57BL/6J mouse assessed as inhibition of food intake at 0.3 mg/kg/day, sc administered by infusion as continuous dosing for 3 days relative to 1 mg/kg/day PYY (3 to 36 residues). In kind it is functional.
A short description of series [19]: Cmax in C57BL/6J mouse at 1 mg/kg, sc by LC/MS/MS analysis. The conditions noted are these: in vivo. In kind it is ADME, organism-based. More on the design: dose 1 mg/kg, route subcutaneous.
Series [20] is described as follows: Total clearance in C57BL/6J mouse at 1 mg/kg, iv by LC/MS/MS analysis. In kind it is ADME, organism-based. The settings on record: in vivo.
Series [21] can be described thus: Mean residence time in C57BL/6J mouse at 1 mg/kg, sc by LC/MS/MS analysis. The series is classed as ADME, organism-based. The conditions noted are these: in vivo.
A short description of series [22]: Plasma concentration in C57BL/6J mouse at 1 mg/kg, iv after 5 mins by LC/MS/MS analysis. The series is classed as ADME, organism-based.
Series [23] in a line: Tmax in C57BL/6J mouse at 1 mg/kg, sc by LC/MS/MS analysis. In kind it is ADME, organism-based. The settings on record: in vivo.

Each structure is given as a SMILES string. Active and inactive are the calls of the source. The rule behind the calls is not given here. Where a SMILES comes first, the peptide text is derived from it. [ ]: non-standard residue; d: D form. The star is where a group is joined. dHyp = O=C(O)[C@H]1C[C@H](O)CN1; Cha = N[C@@H](CC1CCCCC1)C(=O)O; Aib = CC(C)(N)C(=O)O; Bz = O=C(c1ccccc1)*

In the case of `CC(=O)N[C@@H](CO)C(=O)N1C[C@@H](O)C[C@@H]1C(=O)N[C@@H](CCCNC(=N)N)C(=O)N[C@@H](Cc1cnc[nH]1)C(=O)N[C@@H](CC1CCCCC1)C(=O)N[C@@H](CC1CCCCC1)C(=O)N[C@@H](CC(N)=O)C(=O)N[C@@H](CC(C)C)C(=O)NC(C)(C)C(=O)N[C@H](C(=O)N[C@@H](CCCNC(=N)N)C(=O)N[C@@H](CCC(N)=O)C(=O)N[C@@H](CCCNC(=N)N)C(=O)N[C@@H](CC1CCCCC1)C(N)=O)[C@@H](C)O` (Ac-S[dHyp]RH[Cha][Cha]NL[Aib]TRQR[Cha]-NH2), in [1], the IC50 came to 0.7 nM. In series [2], this molecule gave a bioavailability of 18.6%. This molecule also yielded an EC50 in series [3] of 0.2 nM. Further, in series [4], the “inhibition (INH)” value is 18%. The same molecule registered an MAT in series [5] of 0.14 h.

For `CC(C)C[C@H](NC(=O)[C@H](CC(N)=O)NC(=O)[C@H](CC1CCCCC1)NC(=O)[C@H](CC1CCCCC1)NC(=O)[C@H](Cc1cnc[nH]1)NC(=O)[C@H](CCCNC(=N)N)NC(=O)c1ccccc1)C(=O)NC(C)(C)C(=O)N[C@H](C(=O)N[C@@H](CCCNC(=N)N)C(=O)N[C@@H](CCC(N)=O)C(=O)N[C@@H](CCCNC(=N)N)C(=O)N[C@@H](CC1CCCCC1)C(N)=O)[C@@H](C)O` (Bz-RH[Cha][Cha]NL[Aib]TRQR[Cha]-NH2), in series [1], the IC50 was found to be 7.4 nM. The molecule also came in with a bioavailability in [2] of 5.9%. In addition, the EC50 in series [3] came out at 2 nM. In [5], this molecule yielded an MAT of 2.72 h.

In series [1], `CC(=O)N[C@@H](CO)C(=O)N1CCC[C@@H]1C(=O)N[C@@H](CCCNC(=N)N)C(=O)N[C@@H](Cc1cnc[nH]1)C(=O)N[C@@H](CC1CCCCC1)C(=O)N[C@@H](CC1CCCCC1)C(=O)N[C@@H](CC(N)=O)C(=O)N[C@@H](CCCN)C(=O)NC(C)(C)C(=O)N[C@H](C(=O)N[C@@H](CCCNC(=N)N)C(=O)N[C@@H](CCC(N)=O)C(=O)N[C@@H](CCCNC(=N)N)C(=O)N[C@@H](CC1CCCCC1)C(N)=O)[C@@H](C)O` yielded an IC50 of 1.2 nM. Besides, the inhibition in vivo at 1 mg/kg/day in [6] was 22%. The molecule further had an EC50 in series [3] of 0.068 nM.

As for `CC(=O)N[C@@H](CO)C(=O)N1CCC[C@@H]1C(=O)N[C@@H](CCCNC(=N)N)C(=O)N[C@@H](Cc1ccncc1)C(=O)N[C@@H](CC1CCCCC1)C(=O)NC(C)(C)C(=O)N[C@@H](CC(N)=O)C(=O)N[C@@H](CCCCN)C(=O)NC(C)(C)C(=O)N[C@H](C(=O)N[C@@H](CCCNC(=N)N)C(=O)N[C@@H](CCC(N)=O)C(=O)N[C@@H](CCCNC(=N)N)C(=O)N[C@@H](CC1CCCCC1)C(N)=O)[C@@H](C)O`, the IC50 in series [1] is 0.92 nM. Besides, the outcome in series [7], in [9] and in series [10] was Active. Also, the values for the mean residence time (MRT) in series [8] and in series [21] were 20.4 min and 26.4 min, respectively. In addition, the Activity in series [11] came to 23%. Besides, the values for the AUC(0-t) at 24 h in series [12] and in series [17] were 0.154 µM·h and 0.231 µM·h, respectively. Also, the “inhibition (INH)” value in series [13] was 38%; in series [18] it was 112%; in series [4] it was 80%. In series [2], this molecule gave a bioavailability of 66.6%. Moreover, the inhibition entry in series [14] and in series [16] was “Active” each time. Besides, in [15], the Vd was determined as 0.809 L/kg. The molecule also displayed a Cmax in series [19] of 283 nM. Also, the clearance in series [20] is 39.9 mL/min/kg. For the same molecule, the concentration at 5 min in [22] worked out at 1060 nM. Besides, the Tmax in series [23] came out at 10.2 min. Further, the EC50 in series [3] is 0.2 nM. Also, the MAT in series [5] stood at 0.1 h.

Take `CC(=O)N[C@@H](CO)C(=O)N1CCC[C@@H]1C(=O)N[C@@H](CCCNC(=N)N)C(=O)N[C@@H](Cc1cnc[nH]1)C(=O)N[C@@H](CC1CCCCC1)C(=O)N[C@@](C)(CC(C)C)C(=O)N[C@@H](CC(N)=O)C(=O)N[C@@H](CC(C)C)C(=O)NC(C)(C)C(=O)N[C@H](C(=O)N[C@@H](CCCNC(=N)N)C(=O)N[C@@H](CCC(N)=O)C(=O)N[C@@H](CCCNC(=N)N)C(=O)N[C@@H](CC1CCCCC1)C(N)=O)[C@@H](C)O`: the half-maximal inhibitory concentration (IC50) in [1] was determined as 0.94 nM. Further, in series [6], the inhibition in vivo at 1 mg/kg/day is 59%. Besides, the EC50 in series [3] is 0.41 nM.

For `CC(=O)N[C@@H](CO)C(=O)N1CCC[C@@H]1C(=O)N[C@@H](CCCNC(=N)N)C(=O)N[C@@H](Cc1ccncc1)C(=O)N[C@@H](CC1CCCCC1)C(=O)N[C@@H](CC1CCCCC1)C(=O)N[C@@H](CC(N)=O)C(=O)N[C@@H](CC(C)C)C(=O)NC(C)(C)C(=O)N[C@H](C(=O)N[C@@H](CCCNC(=N)N)C(=O)N[C@@H](CCC(N)=O)C(=O)N[C@@H](CCCNC(=N)N)C(=O)N[C@@H](CC1CCCCC1)C(N)=O)[C@@H](C)O`, the IC50 in series [1] was found to be 0.49 nM. Besides, the inhibition in vivo at 1 mg/kg/day in [6] turned out to be 72%. In series [3], this molecule had an EC50 of 0.19 nM.
